# From patent US9925176B2, “Sodium channel blocker delivery system with scleral lens” (Boston Foundation for Sight, priority 2009, dated 2018)
# Columns and labels:
# [1] = system: cornea; details: proparacaine 0.05%, after photorefractive keratectomy, Shahinian et al.; cited from earlier work
# [2] = system: corneal neuropathic pain; test: Treatment of corneal pain with drug solution in the fluid reservoir of a scleral lens (BOS-P); assay type: in vivo, human
# Method: (§1) A patient with well-established primary Sjögren's syndrome and severe dry eyes was treated for intense, constant corneal pain using the anesthetic delivery system disclosed herein. Specifically, the patient was treated with bupivacaine and BOS-P devices. The concentration of non-preserved bupivacaine was rapidly titrated using frequent (every 2-5 minutes) drops in the more symptomatic left eye (open label) measuring corneal sensitivity with a Cochet-Bonnet aesthesiometer (with adequate recovery times) until reaching the concentration that avoided any depression of corneal sensitivity. The sub-anesthetic concentration in this patient was determined to be 0.001%. Both BOS-P devices were filled with 0.001% bupivacaine and inserted into the patient's eyes. The patient then left.
# The patient was given a vial of 0.01% bupivacaine to dilute 1:10 (e.g., add one drop of 0.01% bupivacaine to nine drops of saline) to fill the reservoir of the left lens prior to inserting it the next morning.
# (§2) They wore the BOS-P containing 0.001% bupivacaine in their left eye, and the BOS-P containing saline in their right eye unmasked to the patient and doctor, for about 8 hours. […] Corneal sensation in the treated eye was normal.
# The fluid compartments of both BOS-P lenses were filled with non-preserved bupivacaine at a concentration of 0.002%, and the BOS-P lenses with bupivacaine were worn at least 12 hours/day. […] Eye symptoms were also resolved after the bupivacaine was diluted to 0.0014%.
# A patient suffered from Stevens-Johnson syndrome for about 25 years, complicated by scarring of the lids and corneas of both eyes. The patient was fitted with scleral lens with marked mitigation of eye pain for 2 years following which the patient experienced increasingly disabling eye pain and photosensitivity that was refractory to all available treatments and required high daily doses of opioids to control. Three drops of ropivacaine 0.04% were mixed with 5 drops of saline in the reservoirs of both of the patient's scleral lenses, yielding a solution of 0.015% ropivacaine.
# The patient returned the following day 2 hours after inserting the scleral lenses containing 0.015% ropivacaine. […]
# A patient underwent a bone marrow stem cell transplant for leukemia and subsequently developed severe dry eyes secondary to chronic graft versus host disease. They were fitted with a scleral lens that eliminated the severe burning pain in their right eye but continued to experienced knife-like and severe aching pain in their left eye and disabling photosensitivity while wearing the scleral lens. This persisted for 15 months. All eye and co-morbid pain symptoms disappeared when the lens was worn with its fluid reservoir filled with sterile, non-preserved lacosamide 0.05%.
# [3] = system: corneas; test: Ocular safety examination (fluorescein staining, slit lamp, confocal microscopy); assay type: in vivo, human
# Method: as §2
# The patient returned the following day 2 hours after inserting the scleral lenses containing 0.015% ropivacaine.
# A patient suffered from severe corneal neuropathic pain for many years, greatly limiting the patient's quality of life. This disease was refractory to previous treatments. Lacosamide was placed in the fluid reservoir of the device where it remained in contact with the cornea while it was worn (approximately 10 hours/day).
# [4] = system: corneal sensitivity; test: Corneal sensitivity by Cochet-Bonnet aesthesiometry; assay type: in vivo, human
# Excerpt: The sub-hypoesthetic dose for a sodium channel blocker or a sodium channel modulator may vary between patients. […] The sub-hypoesthetic dose of a sodium channel blocker or a sodium channel modulator can be determined for an individual patient by selecting a higher starting concentration and gradually reducing the concentration via titration until reaching a sub-hypoesthetic dose as determined by a contact and non-contact esthesiometer. A non-limiting example of a method of determining corneal sensitivity is Cochet-Bonnet aesthesiometry.
# As used herein, the phrases “sub-anesthetic dose” and “sub-anesthetic concentration” refer to a dose of a sodium channel blocker or a sodium channel modulator or a sodium channel modulator that is lower than the anesthetic dose. “Sub-anesthetic dose” and “sub-anesthetic concentration” may be used interchangeably. The sub-anesthetic dose of a sodium channel blocker or a sodium channel modulator may vary between patients. The sub-anesthetic dose of a sodium channel blocker or a sodium channel modulator can be determined for an individual patient by selecting a higher starting concentration and gradually reducing the concentration via titration until reaching a sub-anesthetic dose as determined by a contact and non-contact esthesiometer. A non-limiting example of a starting concentration of a sodium channel blocker or a sodium channel modulator is about 0.02%. In some embodiments, the concentration of the sodium channel blocker or a sodium channel modulator may be titrated down to a concentration that avoids any depression of corneal sensitivity. A non-limiting example of a method of determining corneal sensitivity is Cochet-Bonnet aesthesiometry.
# as §1, with “Both BOS-P devices were filled with 0.001% bupivacaine and inserted into the patient's eyes.” left out
# [5] = system: corneal neuropathic pain; test: Lacosamide eye drops without scleral lens for corneal neuropathic pain; assay type: in vivo, human; details: Example 5, eye drops with 0.5% lacosamide
# Method: Eye drops containing 0.5% lacosamide were administered to the eyes of two patients and to the an eye of the inventor. […] Therefore, it is believed that lacosamide may be used in eye drops at a concentration of up to 5% to treat corneal neuropathic pain without depressing corneal sensation.
# [6] = Example 3, ropivacaine in scleral lenses, continued use
compound,measurement,setting,value
CCCOc1ccc(C(=O)OCCN(CC)CC)cc1N [Proparacaine],anesthetic effect,[1],non-anesthetic
same,toxicity and safety,[1],"non-toxic, and safe for at least one week of use"
CCCCN1CCCCC1C(=O)Nc1c(C)cccc1C (stereo not shown) [bupivacaine],eye comfort reported by patient,"[2]; Example 1, both BOS-P filled with 0.001% bupivacaine, next day",both eyes felt more comfortable than they had been in 3 months
same,pain reported at day's end,"[2]; Example 1, second day, left lens reservoir filled with non-preserved bupivacaine",virtual absence of pain in either eye
same,pain after exposure to glass cleaner or white board marker,"[2]; Example 1, second day, triggers that ordinarily cause severe pain",little or no pain
same,pain reported after about 8 hours of wear,"[2]; Example 1, third day, BOS-P with 0.001% bupivacaine in left eye, saline in right eye",virtually no pain in either eye
same,pain with the Visual Analog Scale,"[2]; Example 1, third day, on arrival",virtually no pain in either eye
same,eye symptoms,"[2]; Example 2, bupivacaine diluted to 0.0014%",resolved
same,"eye symptoms (photosensitivity, burning pain, inability to read)","[2]; Example 2, post cosmetic lid surgery, 0.002% bupivacaine in both BOS-P, at least 12 hours/day, several weeks",resolved
same,fluorescein staining,[3]; in vivo,no significant fluorescein staining
same,corneal sensitivity during wear,"[4]; Example 1, 0.001% bupivacaine in left lens, verified periodically during the day",absence of depressed corneal sensitivity
same,corneal sensation in the treated eye,"[4]; Example 1, after about 8 hours of BOS-P with 0.001% bupivacaine",normal
same,corneal sensation,"[4]; Example 2, 0.002% bupivacaine in BOS-P, several weeks",remained intact
COC[C@@H](NC(C)=O)C(=O)NCc1ccccc1 [lacosamide],eye and co-morbid pain symptoms,"[2]; Example 6, chronic graft versus host disease dry eye, scleral lens reservoir filled with lacosamide 0.05%",disappeared
same,detrimental effects to the corneas,"[3]; Example 4, 0.003% lacosamide in BOS-P, slit lamp examination and confocal microscopy",without any detrimental effects
same,"duration of effect, one patient",[5],over four
same,"duration of effect, other patient",[5],over two
same,onset of pain resolution,[5],almost immediately after administration
same,corneal neuropathic pain,[5]; both patients,complete resolution
same,corneal sensation,"[4]; Example 5, eye drops with 0.5% lacosamide, two patients and the inventor",did not depress corneal sensation
CCCN1CCCC[C@H]1C(=O)Nc1c(C)cccc1C [ropivacaine],"eye pain and photophobia, lenses worn until midnight","[2]; Example 3, 0.015% ropivacaine, first day",total resolution
same,eye pain and photosensitivity following application,"[2]; Example 3, Stevens-Johnson syndrome, 0.015% ropivacaine in both scleral lenses",rapid mitigation
same,symptoms at the time of examination,"[2]; Example 3, following day, 2 hours after inserting lenses with 0.015% ropivacaine",free of symptoms
same,eye pain and photophobia at subsequent examinations,[2]; [6],significant mitigation
same,adverse effects from the treatment,[3]; in vivo,no adverse effects
same,treatment-related complications at subsequent examinations,[3]; in vivo,without adverse treatment-related complications
same,corneal sensitivity,"[4]; Example 3, 0.015% ropivacaine, following day",normal
same,corneal sensitivities at subsequent examinations,[4]; [6],normal
